The results in this text go back to ChEMBL document CHEMBL1777666 (Bioorg Med Chem Lett, 2009).

The nature of test [1]: Inhibition of human recombinant aldose reductase 2 expressed in Escherichia coli BL21 after 10 mins by spectrophotometry analysis.
Test [2] has as its target Aldehyde reductase AKR1A1 (Homo sapiens). Briefly: Inhibition of human recombinant aldehyde reductase after 10 mins by spectrophotometry analysis.

Some results are limits rather than exact numbers.

Consider `O=C(O)Cn1cc(Cc2nc3c(F)c(F)cc(F)c3s2)c2ccccc21` [LIDORESTAT], for which the half-maximal inhibitory concentration (IC50) in test [1] is 5 nM.

As for `CCc1ccc2c(Cc3nc4c(F)c(F)cc(F)c4s3)cn(CC(=O)O)c2n1`, the 50% inhibitory concentration (IC50) in test [1] turned out to be 12 nM.

In the case of `Cc1ccc2c(Cc3nc4c(F)c(F)cc(F)c4s3)cn(CC(=O)O)c2n1`, the figures for the IC50 in test [2] and in test [1] were above 100000 nM and 8 nM, respectively.

`O=C(O)Cn1cc(Cc2nc3c(F)c(F)cc(F)c3s2)c2cccnc21`: the IC50 in test [1] was determined as 7 nM.
